From article PMC6524416, “Nanofibrous Scaffolds Support a 3D in vitro Permeability Model of the Human Intestinal Epithelium” (Frontiers in Pharmacology, 2019)
Read-outs that look alike come from different tables or passages of the source.

Experiments:
human jejunal = settings: ref Sjöberg et al. (2013), Rozehnal et al. (2012), cited from earlier work
[1] = test system: Caco-2 monolayers on Transwell®; assay: Bidirectional permeability across Caco-2 monolayers on Transwell inserts; assay type: in vitro ADME, human; settings: Caco-2 on Transwell, pH 7.4, mean (±SD)
Experimental: (§1) Caco-2 (used within 20 passages throughout the study) was obtained from the Clinical Pathology Laboratory, Queens Medical Centre, Nottingham and are available from ATCC. They were cultured in DMEM (Gibco) supplemented with 10% (v/v) foetal calf serum (FCS), 2 mM L-Glutamine solution, 1% (v/v) antibiotic/antimycotic solution (Gibco; final concentrations of […] streptomycin sulfate and 25 μgmL^-1 amphotericin B) at 37°C, 5% CO2 in 95% relative humidity (RH). Cells were cultured to around 80% confluence before harvesting cells by passaging with Trypsin/EDTA (Sigma Aldrich). Cell culture media was replaced every 2 days. For the initial evaluation of the scaffold compatibility, Collagen type I and untreated nanofibrous scaffolds were mounted in 24-well Cell Crown^TM inserts (Scaffdex). The mounted inserts were then placed in 12-well culture plates and seeded with 50,000 cells in 200 μL per insert. An additional 1 mL culture media was added to the well of the plate which ensured the insert were adequately surrounded and bathed in culture media. Following 24 h of culture at 37°C, 5% CO2, the PrestoBlue viability assay was carried out according to manufacturer’s instructions. In brief, a working solution of 10% (v/v) was prepared from the stock PrestoBlue solution in HBSS and sterile filtered using a 0.2 μm pore filter. Samples were washed three times with pre-warmed PBS and the working solution of PrestoBlue solution applied to the upper chamber of the inserts. Following a 30 min incubation period at 37°C, 5% CO2 with shaking at 150 rpm, 100 μL aliquots were taken from each sample and dispensed in triplicate into a black 96-well plate. The fluorescence of the samples was determined using a plate reader (Tecan Infinite 200, Tecan, United Kingdom) at 530/590 nm (excitation/emission wavelengths). Subsequent viability assays were conducted on day 3 and day 6 of culture to provide an initial assessment of the benefit of the surface treatments on cell adhesion and proliferation. To evaluate barrier formation, Snapwell® hanging inserts (6-well; Corning Life Sciences) were employed as unlike the CellCrown^TM inserts, the Snapwell® hanging inserts provided discrete apical and basolateral chambers in a 6-well plate formate appropriate for assessing barrier formation. The existing polycarbonate membrane on the securing clip of the Snapwell® insert were removed with a scalpel and the nanofiber scaffold affixed securely to the hanging insert by means of the securing clip (Supplementary Figure S1). Cells were seeded using the same cell density (178,000 cells/cm^2) as had been previously optimized for Caco-2 Transwell® cultures ([Hubatsch et al., 2007]). A cell suspension containing 200,000 cells in 500 μL were seeded onto the upper chamber of the Snapwell® inserts and cultured for 15–21 days at 37°C, 5% CO2 in air prior for TEER evaluation and for permeability tests.
(§2) Transport studies were conducted using standard, widely accepted protocols as previously described ([Volpe, 2008]). Transport markers were prepared in transport buffer (HBSS, 25 mM HEPES, pH 7.4). Dimethyl sulfoxide (DMSO) was used to aid solubilisation of poorly soluble drugs at a maximum final concentration of 0.1% (v/v) used in all transport experiments. TEER was measured before and after each experiment to ensure barrier integrity during the experiments and as a control measure of experimental validity. Inserts were transferred to fresh plates containing transport buffer (apical/basolateral volumes were 0.4/1.2 mL and 0.5/6 mL for Transwell® and Snapwell® inserts, respectively). Donor solutions were added to the relevant compartments and the inserts were then incubated at 37°C with shaking at 150 rpm and sampled at intervals of 30 min or 1 h for 1–2 h. Apparent permeability coefficients (Papp) were calculated according to Eq. 2: […]

[2] = test system: Caco-2 cultures on nanofibrous scaffolds; assay: Bidirectional permeability across Caco-2 cultures on collagen-coated PET nanofibrous scaffolds; assay type: in vitro ADME, human
Experimental: (§3) Polyethylene terephthalate flakes (food grade; were procured from recycled plastic bottles and processed in-house) were dissolved in a 1:1 solution of dichloromethane and trifluoroacetic acid (overnight with stirring) and the polymer solution transferred into a syringe fitted with a blunt needle (18 gauge spinneret) attached to a syringe pump (Harvard Apparatus, United Kingdom). Electrospinning was conducted at a flow rate of 0.5 mL/hr at 14 kV voltage (Glassman High Voltage Inc., Series EL, Glassman Europe Ltd., United Kingdom; Supplementary Figure S1). The fibers were collected on a grounded static plate or rotating collector (a tip-collector distance of 15 cm). The scaffolds were removed with the aid of 70% (v/v) IMS and allowed to air dry at room temperature (RT).
(§4) The nanofibrous scaffolds were surface coated with type I bovine collagen (Sigma-Aldrich). For type I bovine collagen coating, 150 μL of collagen solution (stock and working concentrations 3.1 mg/mL and 31 μg/mL, respectively) was gently pipetted ensuring adequate coverage of the entire scaffold. Samples were incubated at RT under aseptic conditions for 1–2 h. Any remaining collagen solution was aspirated and the scaffolds washed with PBS before cell seeding. Control scaffolds included PET nanofibers with no surface treatment.
as §1, with “S1).” for “S1). Cells were seeded using the same cell density (178,000 cells/cm^2) as had been previously optimized for Caco-2 Transwell® cultures ([Hubatsch et al., 2007]). A cell suspension containing 200,000 cells in 500 μL were seeded onto the upper chamber of the Snapwell® inserts and cultured for 15–21 days at 37°C, 5% CO2 in air prior for TEER evaluation and for permeability tests.”

[3] = test system: porcine intestinal segments; assay: Bidirectional permeability across ex vivo porcine intestinal segments; assay type: in vitro ADME, pig
Experimental: (§5) In accordance with the NC3R framework on the reduction and refinement of animals in research; samples were only obtained from healthy adult pig cadavers being used for the purposes of other research projects. The work was conducted according to United Kingdom Home Office guidelines (Animal Scientific Procedures Act […]) and following local AWERB approval (ref 000057). Regional sections from the duodenum (first 25 cm from the stomach), jejunum (150 cm from the stomach) and ileum (first 50 cm back from the ileocecal valve) were resected from pig cadavers (Supplementary Figure S2). Using tweezers the serosa and muscularis propria (muscle layers) were carefully peeled away leaving the mucosa. Sections were washed in PBS, cut to fit the Transwell® inserts (Corning Life Sciences) and transferred in 6-well plates. All tissue was kept on the ice and used within a 24 h time period, post-collection.
(§6) Transport studies were conducted using standard, widely accepted protocols as previously described ([Volpe, 2008]). Transport markers were prepared in transport buffer (HBSS, 25 mM HEPES, pH 7.4). Dimethyl sulfoxide (DMSO) was used to aid solubilisation of poorly soluble drugs at a maximum final concentration of 0.1% (v/v) used in all transport experiments. TEER was measured before and after each experiment to ensure barrier integrity during the experiments and as a control measure of experimental validity. Inserts were transferred to fresh plates containing transport buffer (apical/basolateral volumes were 0.4/1.2 mL and 0.5/6 mL for Transwell® and Snapwell® inserts, respectively). Donor solutions were added to the relevant compartments and the inserts were then incubated at 37°C with shaking at 150 rpm and sampled at intervals of 30 min or 1 h for 1–2 h. Apparent permeability coefficients (Papp) were calculated according to Eq. 2:
(§7) Where dQ/dt is the flux of the compound being investigated (μM s-1), A is the exposed surface area of the insert/scaffold (cm^2) and C0 is the concentration in the apical compartment at t = 0 (μM).
(§8) Compound recovery following permeability assessment were calculated according the following Eq. 3:
(§9) (3) Recovery (%)=[CR(final)×VR(final))×100/(CD(initial)×VD(initial)]
(§10) Where CD and CR are the donor and receiver compartment concentrations, VD and VR are the donor and receiver compartment volumes at t = 0 (initial) or the end of the experiment (final).
(§11) All HPLC was performed using a Kinetix XB-C18 5 μm, 100 Å pore size, 150 mm × 4.56 mm column (with a guard column) on an Agilent 1100 HPLC system. […] Samples were analyzed using gradient runs with Milli-Q dH2O, 0.5% TFA (eluent A) and acetonitrile, 0.5% TFA (eluent B).

Caco-2 monolayers = test system: Caco-2 monolayers; set-up: method as in Artursson et al., 1993, 2001; settings: ref Artursson et al., 1993, 2001; cited from earlier work
[4] = Bidirectional permeability across Caco-2 monolayers on Transwell inserts; assay type: in vitro ADME, human; settings: human, Caco-2 on Transwell; for Papp A→B: apical to basolateral; for Papp A→B / Papp B→A: pH 7.4, mean (±SD); for Papp B→A: basolateral to apical
Experimental: as §1, §2

[5] = Bidirectional permeability across ex vivo porcine intestinal segments; assay type: in vitro ADME, pig; settings: pig; for recovery: pH 7.4, porcine intestinal segments; for Papp A→B / Papp B→A: pH 7.4, all porcine segments (duodenum, jejunum, ileum); for Papp A→B: A to B, read-out: Papp (A to B), range over porcine segments; for Papp B→A: B to A, read-out: Papp (B to A), range over porcine segments
Experimental: as §5, §6, §7, §8, §9, §10, §11

[6] = test system: porcine intestinal tissue; settings: uncorrected Papp; ref Westerhout et al. (2014); cited from earlier work
[7] = Bidirectional permeability across Caco-2 cultures on collagen-coated PET nanofibrous scaffolds; assay type: in vitro ADME, human; settings: human, Caco-2 on nanofiber scaffolds, pH 7.4, mean (±SD)
Experimental: as §3, §4
as §1, with “S1).” for “S1). Cells were seeded using the same cell density (178,000 cells/cm^2) as had been previously optimized for Caco-2 Transwell® cultures ([Hubatsch et al., 2007]). A cell suspension containing 200,000 cells in 500 μL were seeded onto the upper chamber of the Snapwell® inserts and cultured for 15–21 days at 37°C, 5% CO2 in air prior for TEER evaluation and for permeability tests.”

For `OC[C@@H](O)[C@@H](O)[C@H](O)[C@H](O)CO` [mannitol], the “human jejunal Papp” value (human jejunal; second listed value) is given as 5.56 ± 2.21 × 10^-6 cm s^-1.
In the case of lucifer yellow [LY], the “Papp (A to B)” value ([1]; apical to basolateral) is listed as 0.30 (±0.13) × 10^-6 cm s^-1, the “Papp (B to A)” value ([1]; basolateral to apical) is listed as 0.66 (±0.23) × 10^-6 cm s^-1 and the “human jejunal Papp” value (human jejunal; first listed value) is listed as 4.02 ± 2.20 × 10^-6 cm s^-1. For the same compound, the “Papp (A to B)” value ([2]; Caco-2 on nanofiber scaffolds, apical to basolateral, pH 7.4, mean (±SD)) was 7.14 (±0.4.53) × 10^-6 cm s^-1, the “Papp (B to A)” value ([2]; Caco-2 on nanofiber scaffolds, basolateral to apical, pH 7.4, mean (±SD)) was 8.51 (±6.61) × 10^-6 cm s^-1 and the “Papp (A to B)” value ([3]; porcine duodenal section) was 4.66 (±1.19) × 10^-6 cm s^-1. For the same compound, the “Papp (B to A)” value ([3]; porcine duodenal section) was 2.01 (±0.85) × 10^-6 cm s^-1, the “Papp (A to B)” value ([3]; porcine ileal section) was 5.58 (±3.93) × 10^-6 cm s^-1 and the “Papp (B to A)” value ([3]; porcine ileal section) was 3.80 (±3.46) × 10^-6 cm s^-1. The “Papp (A to B)” value ([3]; porcine jejunal section) was 5.71 (±1.50) × 10^-6 cm s^-1 and the “Papp (B to A)” value ([3]; porcine jejunal section) was 4.31 (±2.58) × 10^-6 cm s^-1.
For polyethylene glycols, the “fold lower permeability in Caco-2 monolayers compared to human in vivo” value (Caco-2 monolayers) is given as about 100 fold.
Compound `COC(=O)c1ccccc1-c1c2ccc(=N)cc-2oc2cc(N)ccc12` [Rho-123, rhodamine 123] has an efflux ratio at 10 µM ([4]; pH 7.4, B to A / A to B) of 4.6, a Papp A→B [4] of 0.82 ×10⁻⁶ cm/s and a Papp B→A [4] of 3.8 ×10⁻⁶ cm/s. The active efflux ([2]; 3D nanofiber based cultures) was “not detectable”, the active efflux ([3]; porcine tissue segments) was “not detectable” and the recovery ([5]; read-out: recovery (range)) was 37 to 54%. It also gave a Papp A→B [5] of 5.6 to 7.6 ×10⁻⁶ cm/s and a Papp B→A [5] of 1.8 to 3.6 ×10⁻⁶ cm/s.
For `CC(C)NCC(O)COc1cccc2ccccc12` (stereo not drawn) [PRN, Propranolol], the Papp A→B [4] is given as 30.7 ×10⁻⁶ cm/s, the Papp B→A [4] is given as 32 ×10⁻⁶ cm/s and the Papp [6] is given as 0.42 ×10⁻⁶ cm/s. The “increase in permeability over Transwell cultures” value ([2]; nanofiber based culture vs Transwell Caco-2) was “more than a two-fold increase”, the Papp A→B ([7]; apical to basolateral) was 86.3 ×10⁻⁶ cm/s and the Papp B→A ([7]; basolateral to apical) was 75.1 ×10⁻⁶ cm/s. For the same compound, the recovery ([5]; read-out: average recovery) was 58%, the recovery ([5]; read-out: recovery (range)) was 35 to 75% and the Papp A→B [5] was 7.76 to 9.6 ×10⁻⁶ cm/s. For the same compound, the Papp B→A [5] was 1.85 to 5.5 ×10⁻⁶ cm/s.
Work on `CC(C)NCC(O)COc1ccc(CC(N)=O)cc1` (stereo not drawn) [ATN, Atenolol] yielded a recovery ([5]; read-out: average recovery) of 80% and a recovery ([5]; read-out: recovery (range)) of 70 to 95%.
